≈ marks a conversion by molar mass, not a printed value.
How the values were obtained:
A. baumannii PBP2 = A. baumannii PBP2 (Acinetobacter baumannii, UniProt D0C8Z9); assay: Bocillin-FL competition binding via gel filtration, A. baumannii PBP2
Procedure, shortened: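 Enzyme pre-incubated with increasing inhibitor concentrations, then Bocillin-FL added for 15 min further incubation. Bocillin-FL-bound PBP separated by gel filtration and fluorescence read. EC50 from fitting fraction PBP bound vs inhibitor concentration to a Hill-type equation (ymin, ymax, n).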

[1] = target: T1, PBP3 from Acinetobacter baumannii (ATCC 19606) (Acinetobacter baumannii, UniProt A0ABX6CK25); assay: Bocillin-FL fluorescence polarization competition binding, A. baumannii PBP3; details: fluorescence polarization competition binding assay using Bocillin-FL; read-out: A. baumannii PBP3 Potency
T1 sequence (A0ABX6CK25 64-610): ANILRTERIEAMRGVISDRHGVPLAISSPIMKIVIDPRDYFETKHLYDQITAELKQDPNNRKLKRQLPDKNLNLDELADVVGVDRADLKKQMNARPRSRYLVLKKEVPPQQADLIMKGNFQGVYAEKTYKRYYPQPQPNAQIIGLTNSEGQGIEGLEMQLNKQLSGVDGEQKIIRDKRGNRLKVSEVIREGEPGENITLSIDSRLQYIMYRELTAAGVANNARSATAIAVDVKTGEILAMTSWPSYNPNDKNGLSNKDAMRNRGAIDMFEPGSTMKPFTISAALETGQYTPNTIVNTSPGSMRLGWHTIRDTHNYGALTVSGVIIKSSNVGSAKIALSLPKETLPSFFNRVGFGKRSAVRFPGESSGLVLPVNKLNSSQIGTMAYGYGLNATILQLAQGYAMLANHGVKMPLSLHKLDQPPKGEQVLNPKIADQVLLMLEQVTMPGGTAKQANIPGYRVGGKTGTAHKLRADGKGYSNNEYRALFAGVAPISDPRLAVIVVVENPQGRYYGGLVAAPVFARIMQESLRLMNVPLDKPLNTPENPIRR
Procedure, shortened: (§1)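 Purified PBPs pre-incubated with inhibitor (E. coli PBP3 1.5 μM, 30 min; P. aeruginosa PBP3 0.75 μM, A. baumannii PBP1a 1 μM and PBP3 0.2 μM, 15 min), then Bocillin-FL 0.1 μM (0.05 μM for PBP1a) added; FP read up to 60 min. EC50 = concentration halving bound Bocillin-FL.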

[2] = target: T2, PBP3 from Pseudomonas aeruginosa (PAO1) (Pseudomonas aeruginosa, UniProt G3XD46); assay: Bocillin-FL fluorescence polarization competition binding, P. aeruginosa PBP3; details: Binding affinity to P. aeruginosa PBP3; fluorescence polarization competition binding assay using Bocillin-FL; read-out: P. aeruginosa PBP3 Potency
T2 construct: made in house
T2 sequence (G3XD46 whole entry): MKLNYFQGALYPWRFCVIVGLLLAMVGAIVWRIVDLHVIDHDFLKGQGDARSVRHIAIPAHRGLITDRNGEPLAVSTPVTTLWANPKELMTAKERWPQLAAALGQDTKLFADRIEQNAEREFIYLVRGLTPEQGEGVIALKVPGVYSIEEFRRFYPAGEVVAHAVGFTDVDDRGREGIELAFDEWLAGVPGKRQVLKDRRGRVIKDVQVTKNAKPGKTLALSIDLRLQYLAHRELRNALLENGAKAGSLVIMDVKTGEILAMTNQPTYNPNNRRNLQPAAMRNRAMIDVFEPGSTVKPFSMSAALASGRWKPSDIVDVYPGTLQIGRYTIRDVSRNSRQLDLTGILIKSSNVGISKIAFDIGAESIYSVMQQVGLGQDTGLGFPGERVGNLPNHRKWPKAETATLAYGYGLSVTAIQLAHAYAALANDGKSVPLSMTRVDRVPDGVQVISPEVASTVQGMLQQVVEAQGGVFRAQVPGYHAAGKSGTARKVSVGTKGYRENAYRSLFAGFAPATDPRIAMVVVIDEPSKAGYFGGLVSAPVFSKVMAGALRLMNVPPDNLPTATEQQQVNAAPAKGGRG
Procedure, shortened: as §1

P. aeruginosa CDC-0110 = assay: microbe, parasite or virus in culture; format: cell-based; details: Pseudomonas aeruginosa, CDC0110, read-out: Minimum inhibitory concentration, P. aeruginosa CDC-0110
[3] = system: P. aeruginosa (ΔmexAB-oprM); assay: Broth microdilution MIC in iron-depleted CAMHB (IDM); format: cell-based; details: Pseudomonas aeruginosa; iron-depleted CAMHB (IDM); […]; read-out: Minimum inhibitory concentration, P. aeruginosa ΔmexAB-oprM
A. baumannii CDC-0045 = assay: microbe, parasite or virus in culture; format: cell-based; details: Acinetobacter baumannii, CDC0045, read-out: MIC, A. baumannii CDC-0045
A. baumannii CDC-0036 = assay: microbe, parasite or virus in culture; format: cell-based; details: Acinetobacter baumannii, CDC0036, read-out: MIC, A. baumannii CDC-0036
A. baumannii ATCC 19606 = assay: microbe, parasite or virus in culture; format: cell-based; details: Acinetobacter baumannii, ATCC19606, read-out: MIC, A. baumannii ATCC 19606

Chain of A. baumannii PBP2 (D0C8Z9 whole entry): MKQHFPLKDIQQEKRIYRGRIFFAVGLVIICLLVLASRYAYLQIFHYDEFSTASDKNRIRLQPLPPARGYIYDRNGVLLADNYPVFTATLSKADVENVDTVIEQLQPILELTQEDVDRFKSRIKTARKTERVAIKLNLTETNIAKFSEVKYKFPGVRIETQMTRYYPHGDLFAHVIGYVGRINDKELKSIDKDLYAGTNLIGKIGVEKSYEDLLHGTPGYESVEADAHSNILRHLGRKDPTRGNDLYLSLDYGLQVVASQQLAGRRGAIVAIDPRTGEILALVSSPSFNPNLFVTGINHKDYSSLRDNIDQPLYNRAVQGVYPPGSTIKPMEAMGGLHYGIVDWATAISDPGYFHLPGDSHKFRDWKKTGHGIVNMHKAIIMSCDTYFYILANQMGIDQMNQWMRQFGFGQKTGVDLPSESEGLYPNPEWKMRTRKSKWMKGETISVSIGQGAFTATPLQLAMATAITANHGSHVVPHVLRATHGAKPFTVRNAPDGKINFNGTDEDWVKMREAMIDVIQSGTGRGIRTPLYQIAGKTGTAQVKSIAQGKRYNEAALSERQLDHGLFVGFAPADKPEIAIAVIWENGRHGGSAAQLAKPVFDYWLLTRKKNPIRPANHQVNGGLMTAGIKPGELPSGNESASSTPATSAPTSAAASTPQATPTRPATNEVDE

O=C(O)c1c(F)ccc2c1OB(O)[C@@H](NC(=O)C(NC(=O)N1CCN(C3CCN(C(=O)Nc4ccc(F)c(O)c4F)CC3)C1=O)c1cc(F)c(O)c(O)c1Cl)C2 (stereo partly drawn) [Example 452, (3R)-3-(2-(2-chloro-5-fluoro-3,4-dihydroxyphenyl)-2-(3-(1-((2,4-difluoro-3-hydroxyphenyl)carbamoyl)piperidin-4-yl)-2-oxoimidazolidine-1-carboxamido)acetamido)-7-fluoro-2-hydroxy-3,4-dihydro-2H-benzo[e][1,2]oxaborinine-8-carboxylic acid]
EC50 (A. baumannii PBP2): < 10 µM | IC50 [1]: < 10 µM | IC50 [2]: < 10 µM | MIC (P. aeruginosa CDC-0110): < 1 µg/mL | MIC [3]: < 1 µg/mL | MIC (A. baumannii CDC-0045): < 1 µg/mL | MIC (A. baumannii CDC-0036): 2 to 4 µg/mL (≈ 2.47 to 4.95 µM) | MIC (A. baumannii ATCC 19606): < 1 µg/mL

O=C(O)c1c(F)ccc2c1OB(O)[C@@H](NC(=O)[C@H](NC(=O)N1CCN(C3CCN(C(=O)c4cc(O)ccc4F)CC3)C1=O)c1cc(F)c(O)c(O)c1Cl)C2 (single isomer, unassigned) [Example 433]
EC50 (A. baumannii PBP2): < 10 µM | IC50 [1]: < 10 µM | IC50 [2]: < 10 µM | MIC (P. aeruginosa CDC-0110): < 1 µg/mL | MIC [3]: < 1 µg/mL | MIC (A. baumannii CDC-0045): < 1 µg/mL | MIC (A. baumannii CDC-0036): < 1 µg/mL | MIC (A. baumannii ATCC 19606): < 1 µg/mL

O=C(O)c1c(F)ccc2c1OB(O)[C@@H](NC(=O)[C@H](NC(=O)N1CCN(C3CCN(C(=O)c4c(F)ccc(O)c4F)CC3)C1=O)c1cc(F)c(O)c(O)c1Cl)C2 (single isomer, unassigned) [Example 439]
EC50 (A. baumannii PBP2): < 10 µM | IC50 [1]: < 10 µM | IC50 [2]: < 10 µM | MIC (P. aeruginosa CDC-0110): < 1 µg/mL | MIC [3]: < 1 µg/mL | MIC (A. baumannii CDC-0045): < 1 µg/mL | MIC (A. baumannii CDC-0036): < 1 µg/mL | MIC (A. baumannii ATCC 19606): < 1 µg/mL

O=C(O)c1c(F)ccc2c1OB(O)[C@@H](NC(=O)[C@H](NC(=O)N1CCN(C3CCN(C(=O)c4c(F)ccc(O)c4Cl)CC3)C1=O)c1cc(F)c(O)c(O)c1Cl)C2 (single isomer, unassigned) [Example 440]
EC50 (A. baumannii PBP2): < 10 µM | IC50 [1]: < 10 µM | IC50 [2]: < 10 µM | MIC (P. aeruginosa CDC-0110): < 1 µg/mL | MIC [3]: < 1 µg/mL | MIC (A. baumannii CDC-0045): < 1 µg/mL | MIC (A. baumannii CDC-0036): < 1 µg/mL | MIC (A. baumannii ATCC 19606): < 1 µg/mL

O=C(O)c1c(F)ccc2c1OB(O)[C@@H](NC(=O)[C@H](NC(=O)N1CCN(C3CCN(C(=O)Nc4cccc(O)c4F)CC3)C1=O)c1cc(F)c(O)c(O)c1Cl)C2 (single isomer, unassigned) [Example 446]
EC50 (A. baumannii PBP2): < 10 µM | IC50 [1]: < 10 µM | IC50 [2]: < 10 µM | MIC (P. aeruginosa CDC-0110): < 1 µg/mL | MIC [3]: < 1 µg/mL | MIC (A. baumannii CDC-0045): < 1 µg/mL | MIC (A. baumannii CDC-0036): < 1 µg/mL | MIC (A. baumannii ATCC 19606): < 1 µg/mL

O=C(NCCCS(=O)(=O)N1CCN(C(=O)N[C@H](C(=O)N[C@H]2Cc3ccc(F)c(C(=O)O)c3OB2O)c2ccc(P(=O)(O)O)cc2)C1=O)c1ccc(O)c(O)c1Cl (single isomer, unassigned) [Example 169]
EC50 (A. baumannii PBP2): 50 to 250 µM | IC50 [1]: 10 to 50 µM | IC50 [2]: > 250 µM | MIC (P. aeruginosa CDC-0110): > 128 µg/mL | MIC [3]: > 128 µg/mL | MIC (A. baumannii CDC-0045): > 128 µg/mL | MIC (A. baumannii CDC-0036): > 128 µg/mL | MIC (A. baumannii ATCC 19606): > 128 µg/mL

O=C(O)c1c(F)ccc2c1OB(O)[C@@H](NC(=O)C(NC(=O)N1CCN(C3CCN(C(=O)Nc4ccc(F)c(O)c4)CC3)C(=O)C1=O)c1cc(F)c(O)c(O)c1Cl)C2 (stereo partly drawn) [Example 480, (3R)-3-(2-(2-chloro-5-fluoro-3,4-dihydroxyphenyl)-2-(4-(1-((4-fluoro-3-hydroxyphenyl)carbamoyl)piperidin-4-yl)-2,3-dioxopiperazine-1-carboxamido)acetamido)-7-fluoro-2-hydroxy-3,4-dihydro-2H-benzo[e][1,2]oxaborinine-8-carboxylic acid]
EC50 (A. baumannii PBP2): 10 to 50 µM | IC50 [1]: < 10 µM | IC50 [2]: < 10 µM | MIC (P. aeruginosa CDC-0110): 2 to 4 µg/mL (≈ 2.44 to 4.88 µM) | MIC [3]: < 1 µg/mL | MIC (A. baumannii CDC-0045): < 1 µg/mL | MIC (A. baumannii CDC-0036): 2 to 4 µg/mL (≈ 2.44 to 4.88 µM) | MIC (A. baumannii ATCC 19606): < 1 µg/mL

Reference: patent US20240270762A1, “PENICILLIN-BINDING PROTEIN INHIBITORS” (priority 2021, published 2024)
